Laboratory results taken from PMC8092876, “A Leucyl-tRNA Synthetase Inhibitor with Broad-Spectrum Antimycobacterial Activity” (Antimicrobial Agents and Chemotherapy, 2021).
≈ marks a conversion by molar mass, not a printed value.

Tests used:
[1] = TB efficacy studies; stated as known, no reference given; cited from earlier work
[2] = tested on: M. abscessus subsp. abscessus M199; test: MIC assay in 96-well plate format; assay type: cell-based; conditions: Mycobacteroides abscessus; M. abscessus subsp. abscessus M199, clinical isolate
[3] = tested on: M. abscessus Bamboo; assay type: cell-based
[4] = tested on: M. abscessus Bamboo RM2 (LeuS K502E); test: microbe, parasite or virus in culture; assay type: cell-based; conditions: Mycobacteroides abscessus
[5] = tested on: M. abscessus subsp. abscessus K21; test: MIC assay in 96-well plate format; assay type: cell-based; conditions: Mycobacteroides abscessus; M. abscessus subsp. abscessus K21, clinical isolate, infection model
[6] = tested on: M. abscessus subsp. abscessus M337; test: MIC assay in 96-well plate format; assay type: cell-based; conditions: Mycobacteroides abscessus; M. abscessus subsp. abscessus M337, clinical isolate
[7] = tested on: M. abscessus Bamboo RM4 (LeuS T327R); test: microbe, parasite or virus in culture; assay type: cell-based; conditions: Mycobacteroides abscessus
[8] = Stability in microsomes; assay type: in vitro ADME
Method: Intrinsic clearance (CLi) values were determined in mouse and human liver microsomes. Test compounds (final concentration 0.5 μM) were incubated at 37°C for 30 min in 50 mM potassium phosphate buffer (pH 7.4) containing 0.5 mg microsomal protein/ml. The reaction was started by addition of cofactor NADPH. At 0, 5, and 20 min, an aliquot (90 μl) was taken, quenched with acetonitrile-methanol containing an appropriate internal standard, centrifuged, and analyzed by liquid chromatography-tandem mass spectrometry (LC-MS/MS). The intrinsic clearance (CLi) was determined using the following equation: CLi = k(ml of incubation/mg microsomal protein) × (mg microsomal protein/g liver)where k is the turnover rate constant of the ln(% remaining compound) versus time regression and mg microsomal protein/g liver is 52.5 for both mouse and human.

[9] = tested on: M. abscessus Bamboo RM5 (LeuS V417M); test: microbe, parasite or virus in culture; assay type: cell-based; conditions: RM5, batch 2, LeuS V417M
[10] = tested on: M. chimaera CCUG 50989T; test: MIC assay in 96-well plate format; assay type: cell-based; conditions: CCUG50989T, culture collection reference strain
[11] = tested on: M. abscessus Bamboo RM1 (LeuS A428P); test: microbe, parasite or virus in culture; assay type: cell-based; conditions: Mycobacteroides abscessus
[12] = tested on: M. abscessus subsp. abscessus ATCC 19977; test: MIC assay in 96-well plate format; assay type: cell-based; conditions: Mycobacteroides abscessus, ATCC19977; M. abscessus subsp. abscessus ATCC 19977, culture collection reference strain
[13] = AMP (artificial membrane permeability) assay; assay type: in vitro ADME; conditions: PAMPA, pH 7.4
Method: An 8% L-α-phosphatidylcholine (EPC) in 1% cholesterol decane solution and a 1.8% EPC in cholesterol decane solution were prepared. The lipid solution was then aliquoted into 4 ml capped vials, sealed with parafilm, and stored in a −20°C freezer. The lipid solution was then transferred from 4 ml vial into a 96-well half area plate (130 μl/well) for daily assay usage. An additional 50 mM phosphate buffer with 0.5% encapsin (pH 7.4) was prepared. The assay was run by the Biomek FX and Biomek software. The assay procedure is written under the Biomek software. For one batch assay, it can test two 96-well sample plates with at least one standard on each sample plate. The total assay time was about 4 h. A total of 3.5 μl of lipid solution was added to the filler plate and shaken for 12 s, 250 μl of buffer was added to the donor side, and 100 μl of buffer was added to the receiver side. The assay plate was shaken for 45 min before adding the compounds. The test compounds (2.5 μl) were added to the donor side. The assay was run as replicates: assay plates 1 and 2 tested sample plate 1, and assay plates 3 and 4 tested sample plate 2. The assay plates were then incubated and shaken for 3 h at room temperature. […] Compound concentration was measured by HPLC at different time points.

[14] = tested on: M. abscessus Bamboo; test: MIC and MBC determination in culture tubes (planktonic)
Method: M. abscessus Bamboo culture was grown to mid-log-phase (OD600 = 0.4 to 0.6) and diluted to OD600 = 0.1 (1 × 10^7 CFU/ml). Aliquots of 1.2 ml of the resulting bacteria suspension were transferred into 14 ml vented, round-bottom tubes (Thermo Fisher 150268, Rochester, NY, United States). A 10-point 2-fold dilution series of the compound was prepared, starting at 100 times the desired highest concentration. The compound concentration range tested was 100 to 0.195 μM. For each drug concentration tested, 12 μl of drug stock was added to two tubes and vortexed. Aliquots of 12 μl of DMSO were added to two tubes as the untreated controls (1% final DMSO concentration). From each tube, 200 μl was transferred to wells on a 96-well plate and the OD600 was measured using a Tecan Infinite M200 plate reader (day 0 reading). The tubes (1 ml final volume) were incubated on a tilted rack at 37°C on an orbital shaker at 220 rpm. On day 2, tubes were vortexed before transferring 200 μl onto a 96-well plate to measure the OD600 again (day 2 reading). To determine the MIC, day 0 and day 2 OD600 values were analyzed as previously described for MIC determination in 96-well plate format. To determine the MBC, CFU measurement was done for the OD600 = 0.1 bacteria suspension on day 0 and for each tube on day 2. Specifically, serial 10-fold dilutions were prepared in phosphate-buffered saline (Thermo Fisher 10010023) containing 0.025% Tween 80 (PBS/Tween 80) and plated on 7H10 agar. The MBC was defined as the lowest concentration of drug that reduced the CFU/ml value by 10-fold relative to the day 0 CFU/ml value.

[15] = ChromlogD assay; assay type: physicochemical; conditions: reversed phase HPLC column (Gemini NX C18), pH 7.4
Method: The Chromatographic Hydrophobicity Index (CHI) values are measured using reversed phase high-performance liquid chromatography (HPLC) column (50 by 2 mm […] Gemini NX C18, Phenomenex, UK) with fast acetonitrile gradient at starting mobile phase of pHs 2, 7.4, and 10.5. CHI values are derived directly from the gradient retention times by using a calibration line obtained for standard compounds. The CHI value approximates to the volume percent organic concentration when the compound elutes. CHI is linearly transformed into ChromlogD by least-square fitting of experimental CHI values to calculated ClogP values for over 20,000 research compounds using the following formula: ChromlogD = (0.0857 × CHI) − 2.00. The average error of the assay is ±3 CHI unit or ±0.25 ChromlogD.

[16] = Kinetic aqueous solubility assay (CLND); assay type: physicochemical; conditions: aqueous buffer, kinetic from dmso stock, pH 7.4 phosphate-buffered saline
Method: The aqueous solubility of test compounds was measured using an in-house method utilizing quantification via chemiluminescent nitrogen detection (CLND): 5 μl of 10 mM DMSO stock solution was diluted to 100 μl with pH 7.4 phosphate-buffered saline, equilibrated for 1 h at room temperature, and filtered through Millipore Multiscreen HTS-PCF filter plates (MSSL BPC). The eluent is quantified by a suitably calibrated flow injection chemiluminescent nitrogen detection (CLND or CAD). This assay has a dynamic range between the lower detection limit of 1 and 500 μM, governed by the protocol’s 1:20 dilution into pH 7.4 phosphate buffer solution from nominal 10 mM DMSO stock.

[17] = tested on: M. abscessus subsp. massiliense CCUG 48898T; test: MIC assay in 96-well plate format; assay type: cell-based; conditions: Mycobacteroides abscessus, culture collection reference strain
[18] = tested on: M. abscessus Bamboo; test: MIC assay in 96-well plate format; assay type: cell-based, M. abscessus subsp. abscessus; conditions: Mycobacteroides abscessus
[19] = tested on: M. abscessus subsp. bolletii M232; test: MIC assay in 96-well plate format; assay type: cell-based; conditions: Mycobacteroides abscessus; M. abscessus subsp. bolletii M232, clinical isolate

For `CC(C)(O)COc1ccc(Br)c2c1B(O)O[C@@H]2CN` [EC/11770], the tolerated dose [1] is listed as “up to 100 mg/kg”, the MIC [2] is listed as 0.93 µM (≈ 0.307 µg/mL) and the frequency of resistance [3] is listed as 3.9 × 10^−8 /CFU. For the same compound, the MIC [4] was > 100 µM, the MIC [5] was 0.6 µM (≈ 0.198 µg/mL) and the MIC [6] was 0.5 µM (≈ 0.165 µg/mL). For the same compound, the MIC [7] was > 100 µM, the “Human in vitro CLint” value ([8]; human hepatic microsomes) was <0.5 <0.5 ml/min/g tissue and the “Mouse in vitro CLint” value ([8]; mouse hepatic microsomes) was <0.5 <0.5 ml/min/g tissue. For the same compound, the MIC ([9]; Mycobacteroides abscessus) was 60 to 75 µM (≈ 19.8 to 24.7 µg/mL), the MIC [9] was 75 µM (≈ 24.7 µg/mL) and the MIC [10] was 1.7 µM (≈ 0.561 µg/mL). The MIC [11] was > 100 µM, the MIC [12] was 0.7 µM (≈ 0.231 µg/mL) and the Papp at 3 h [13] was 27.5 ×10⁻⁶ cm/s. For the same compound, the MBC ([14]; Mycobacteroides abscessus) was > 100 µM, the MIC ([14]; Mycobacteroides abscessus, 48 h) was 3 µM (≈ 0.99 µg/mL) and the MIC ([14]; planktonic M. abscessus Bamboo in culture tubes, day 2) was 3.0 µM (≈ 0.99 µg/mL). The MBC ([14]; planktonic M. abscessus Bamboo in culture tubes, day 2, 10-fold CFU/ml reduction vs day 0) was >100 µM, the chromatographic logD [15] was 0.97 and the solubility at 1 h [16] was 349 µM (≈ 115 µg/mL). The MIC [17] was 0.71 µM (≈ 0.234 µg/mL), the MIC [18] was 0.9 µM (≈ 0.297 µg/mL) and the MIC ([18]; 72 h, M. abscessus Bamboo, 7H9, 3 days, read-out: MIC) was 1.2 µM (≈ 0.396 µg/mL). It also gave an MIC ([18]; 72 h, M. abscessus Bamboo, CAMH broth, 3 days, read-out: MIC) of 0.7 µM (≈ 0.231 µg/mL) and an MIC [19] of 0.67 µM (≈ 0.221 µg/mL).
